Experimental data published in the supplement of paper PMC11061612.

Assays:
SRA737 = compound: N#Cc1cnc(Nc2cc(NC[C@H]3CNCCO3)c(C(F)(F)F)cn2)cn1 [SRA737]; details: max 10 µM
How it was run: (§1)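 Cancer cell lines were plated in 1536-well plates in 7.5 μl of DMEM/F12 or RPMI with 10% FBS and kept 24 hours at 37°C and 5% CO2 before 72 hours of dosing, with final DMSO typically 0.2%. CellTiter-Glo 2.0 luminescence measured viability, scaled between blank-well and DMSO-well means. Dose responses were fitted to a two-parameter logistic curve with a non-linear mixed effects model. This fit gives the single-agent IC50.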

SN-38 = compound: CCc1c2c(nc3ccc(O)cc13)-c1cc3c(c(=O)n1C2)COC(=O)[C@]3(O)CC [SN-38]; details: max 0.3 µM
How it was run: as §1

Doxorubicin = compound: COc1cccc2c1C(=O)c1c(O)c3c(c(O)c1C2=O)C[C@@](O)(C(=O)CO)C[C@@H]3O[C@H]1C[C@H](N)[C@H](O)[C@H](C)O1 [Doxorubicin]; details: max 1 µM
How it was run: as §1

AZD4320 = compound: CN(CC[C@H](CSC1=CC=CC=C1)NC2=C(C=C(C=C2)S(=O)(=O)NC(=O)C3=CC=C(C=C3)N4CCC(CC4)[C@H](C5=CC=CC=C5C6=CC=C(C=C6)Cl)O)S(=O)(=O)C(F)(F)F)CCO [AZD4320]; details: max 1 µM
How it was run: as §1

Taselisib = compound: Cc1nc(-c2cn3c(n2)-c2ccc(-c4cnn(C(C)(C)C(N)=O)c4)cc2OCC3)n(C(C)C)n1 [Taselisib]; details: max 10 µM
How it was run: as §1

Olaparib = compound: O=C(c1cc(Cc2n[nH]c(=O)c3ccccc23)ccc1F)N1CCN(C(=O)C2CC2)CC1 [Olaparib]; details: max 10 µM
How it was run: as §1

Palbociclib = compound: CC(=O)c1c(C)c2cnc(Nc3ccc(N4CCNCC4)cn3)nc2n(C2CCCC2)c1=O [Palbociclib]; details: max 10 µM
How it was run: as §1

AZD8186 = compound: C[C@@H](Nc1cc(F)cc(F)c1)c1cc(C(=O)N(C)C)cc2c(=O)cc(N3CCOCC3)oc12 [AZD8186]; details: max 10 µM
How it was run: as §1

Prexasertib = compound: COc1cccc(OCCCN)c1-c1cc(Nc2cnc(C#N)cn2)n[nH]1 [Prexasertib]; details: max 1 µM
How it was run: as §1

AZD0156 = compound: CN(C)CCCOc1ccc(-c2ccc3ncc4c(c3c2)n(C2CCOCC2)c(=O)n4C)cn1 [AZD0156]; details: max 3 µM
How it was run: as §1

5-Fluorouracil = compound: O=c1[nH]cc(F)c(=O)[nH]1 [5-Fluorouracil]; details: max 20 µM
How it was run: as §1

AZD1390 = compound: CC(C)n1c(=O)n(C)c2cnc3cc(F)c(-c4ccc(OCCCN5CCCCC5)nc4)cc3c21 [AZD1390]; details: max 0.3 µM
How it was run: as §1

AZD5991 = compound: Cc1c2c(nn1C)CSCc1cc(n(C)n1)CSc1cc(c3ccccc3c1)OCCCc1c(C(=O)O)n(C)c3c-2c(Cl)ccc13 [AZD5991]; details: max 1 µM
How it was run: as §1

AZD5153 = compound: COc1nnc2ccc(N3CCC(c4ccc(OCCN5CCN(C)C(=O)[C@H]5C)cc4)CC3)nn12 [AZD5153]; details: max 1 µM
How it was run: as §1

Dasatinib = compound: CC1=C(C(=CC=C1)Cl)NC(=O)C2=CN=C(S2)NC3=CC(=NC(=N3)C)N4CCN(CC4)CCO [Dasatinib]; details: max 2 µM
How it was run: as §1

AZD2811 = compound: CCN(CCO)CCCOc1ccc2c(Nc3cc(CC(=O)Nc4cccc(F)c4)[nH]n3)ncnc2c1 [AZD2811]; details: max 1 µM
How it was run: as §1

SG3199 = compound: CC1=CN2[C@@H](C1)C=NC3=CC(=C(C=C3C2=O)OC)OCCCCCOC4=C(C=C5C(=C4)N=C[C@@H]6CC(=CN6C5=O)C)OC [SG3199]; details: max 0.001 µM
How it was run: as §1

Etoposide = compound: COc1cc([C@@H]2c3cc4c(cc3[C@@H](O[C@@H]3O[C@@H]5CO[C@@H](C)O[C@H]5[C@H](O)[C@H]3O)[C@H]3COC(=O)[C@H]23)OCO4)cc(OC)c1O [Etoposide]; details: max 10 µM
How it was run: as §1

AZD1775 = compound: C=CCn1c(=O)c2cnc(Nc3ccc(N4CCN(C)CC4)cc3)nc2n1-c1cccc(C(C)(C)O)n1 [AZD1775]; details: max 3 µM
How it was run: as §1

AZD5363 = compound: C1CN(CCC1(C(=O)N[C@@H](CCO)C2=CC=C(C=C2)Cl)N)C3=NC=NC4=C3C=CN4 [AZD5363]; details: max 10 µM
How it was run: as §1

Lapatinib = compound: CS(=O)(=O)CCNCc1ccc(-c2ccc3ncnc(Nc4ccc(OCc5cccc(F)c5)c(Cl)c4)c3c2)o1 [Lapatinib]; details: max 10 µM
How it was run: as §1

Venetoclax = compound: CC1(C)CCC(CN2CCN(c3ccc(C(=O)NS(=O)(=O)c4ccc(NCC5CCOCC5)c([N+](=O)[O-])c4)c(Oc4cnc5[nH]ccc5c4)c3)CC2)=C(c2ccc(Cl)cc2)C1 [Venetoclax]; details: max 1 µM
How it was run: as §1

Gefitinib = compound: COc1cc2ncnc(Nc3ccc(F)c(Cl)c3)c2cc1OCCCN1CCOCC1 [Gefitinib]; details: max 10 µM
How it was run: as §1

Gemcitabine = compound: Nc1ccn([C@@H]2O[C@H](CO)[C@@H](O)C2(F)F)c(=O)n1 [Gemcitabine]; details: max 0.3 µM
How it was run: as §1

AZD6738 = compound: C[C@@H]1COCCN1C2=NC(=NC(=C2)C3(CC3)[S@](=N)(=O)C)C4=C5C=CNC5=NC=C4 [AZD6738]; details: max 10 µM
How it was run: as §1

Alisertib = compound: COc1cc(Nc2ncc3c(n2)-c2ccc(Cl)cc2C(c2c(F)cccc2OC)=NC3)ccc1C(=O)O [Alisertib]; details: max 10 µM
How it was run: as §1

Carboplatin = compound: C1CC(C1)(C(=O)[O-])C(=O)[O-].N.N.[Pt+2] [Carboplatin]; details: max 10 µM
How it was run: as §1

Trametinib = compound: CC(=O)Nc1cccc(-n2c(=O)n(C3CC3)c(=O)c3c(Nc4ccc(I)cc4F)n(C)c(=O)c(C)c32)c1 [Trametinib]; details: max 1 µM
How it was run: as §1

AZD7648 = compound: Cc1cc2ncnn2cc1Nc1ncc2c(n1)n(C1CCOCC1)c(=O)n2C [AZD7648]; details: max 10 µM
How it was run: as §1

Savolitinib = compound: C[C@@H](c1ccc2nccn2c1)n1nnc2ncc(-c3cnn(C)c3)nc21 [Savolitinib]; details: max 1 µM
How it was run: as §1

Crizotinib = compound: C[C@@H](Oc1cc(-c2cnn(C3CCNCC3)c2)cnc1N)c1c(Cl)ccc(F)c1Cl [Crizotinib]; details: max 10 µM
How it was run: as §1

Paclitaxel = compound: CC(=O)O[C@H]1C(=O)[C@@]2(C)[C@H]([C@H](OC(=O)c3ccccc3)[C@]3(O)C[C@H](OC(=O)[C@H](O)[C@@H](NC(=O)c4ccccc4)c4ccccc4)C(C)=C1C3(C)C)[C@]1(OC(C)=O)CO[C@@H]1C[C@@H]2O [Paclitaxel]; details: max 3 µM
How it was run: as §1

Selumetinib = compound: Cn1cnc2c(F)c(Nc3ccc(Br)cc3Cl)c(C(=O)NOCCO)cc21 [Selumetinib]; details: max 10 µM
How it was run: as §1

MK-2206 = compound: NC1(c2ccc(-c3nc4ccn5c(=O)[nH]nc5c4cc3-c3ccccc3)cc2)CCC1 [MK-2206]; details: max 10 µM
How it was run: as §1

[1] = compound: O=C(Nc1ccc2[nH]nc(-c3ccncc3)c2c1)[C@@H]1CCN(CC(=O)N2CCN(c3ccc(-c4ncccn4)cc3)CC2)C1; details: max 5 µM
How it was run: as §1

| Cell Line | IC50, cell viability 72 h (SRA737) | IC50, cell viability 72 h (SN-38) | IC50, cell viability 72 h (Doxorubicin) | IC50, cell viability 72 h (AZD4320) | IC50, cell viability 72 h (Taselisib) | IC50, cell viability 72 h (Olaparib) | IC50, cell viability 72 h (Palbociclib) | IC50, cell viability 72 h (AZD8186) | IC50, cell viability 72 h (Prexasertib) | IC50, cell viability 72 h (AZD0156) | IC50, cell viability 72 h (5-Fluorouracil) | IC50, cell viability 72 h (AZD1390) | IC50, cell viability 72 h (AZD5991) | IC50, cell viability 72 h (AZD5153) | IC50, cell viability 72 h (Dasatinib) | IC50, cell viability 72 h (AZD2811) | IC50, cell viability 72 h (SG3199) | IC50, cell viability 72 h (Etoposide) | IC50, cell viability 72 h (AZD1775) | IC50, cell viability 72 h (AZD5363) | IC50, cell viability 72 h (Lapatinib) | IC50, cell viability 72 h (Venetoclax) | IC50, cell viability 72 h (Gefitinib) | IC50, cell viability 72 h (Gemcitabine) | IC50, cell viability 72 h (AZD6738) | IC50, cell viability 72 h (Alisertib) | IC50, cell viability 72 h (Carboplatin) | IC50, cell viability 72 h (Trametinib) | IC50, cell viability 72 h (AZD7648) | IC50, cell viability 72 h (Savolitinib) | IC50, cell viability 72 h (Crizotinib) | IC50, cell viability 72 h (Paclitaxel) | IC50, cell viability 72 h (Selumetinib) | IC50, cell viability 72 h (MK-2206) | IC50, cell viability 72 h [1] |
| --- | --- | --- | --- | --- | --- | --- | --- | --- | --- | --- | --- | --- | --- | --- | --- | --- | --- | --- | --- | --- | --- | --- | --- | --- | --- | --- | --- | --- | --- | --- | --- | --- | --- | --- | --- |
| CAL-62 (Thyroid Gland Carcinoma) | > 10000 nM | 4.59 nM | 372 nM | > 1000 nM | > 10000 nM | > 10000 nM | > 10000 nM | > 10000 nM | 158 nM | > 3000 nM | > 20000 nM | > 300 nM | > 1000 nM | 127 nM | 784 nM | > 1000 nM | > 1 nM | 3420 nM | 1320 nM | > 10000 nM | > 10000 nM | > 1000 nM | > 10000 nM | 35.5 nM | 5210 nM | > 10000 nM | > 10000 nM | 551 nM | > 10000 nM | > 1000 nM | > 10000 nM | 7.33 nM | > 10000 nM | > 10000 nM | 4090 nM |
| MKN45 (Gastric Carcinoma) | 3610 nM | 32.9 nM | 544 nM | > 1000 nM | 6450 nM | > 10000 nM | 9410 nM | > 10000 nM | 19.7 nM | > 3000 nM | > 20000 nM | > 300 nM | > 1000 nM | 719 nM | > 2000 nM | > 1000 nM | > 1 nM | > 10000 nM | 497 nM | > 10000 nM | > 10000 nM | > 1000 nM | > 10000 nM | 53.6 nM | 2730 nM | > 10000 nM | > 10000 nM | 59.9 nM | > 10000 nM | 13.1 nM | 82.7 nM | 43.5 nM | 5840 nM | 5470 nM | 821 nM |
| IST-MES1 (Mesothelioma) | > 10000 nM | 61.4 nM | 430 nM | > 1000 nM | > 10000 nM | > 10000 nM | > 10000 nM | > 10000 nM | > 1000 nM | > 3000 nM | > 20000 nM | > 300 nM | > 1000 nM | 246 nM | 243 nM | > 1000 nM | > 1 nM | > 10000 nM | > 3000 nM | > 10000 nM | > 10000 nM | > 1000 nM | > 10000 nM | 181 nM | > 10000 nM | > 10000 nM | > 10000 nM | > 1000 nM | > 10000 nM | > 1000 nM | > 10000 nM | 504 nM | > 10000 nM | > 10000 nM | > 5000 nM |
